For one assay, the system named is K562. The experiment in a line: Antiproliferative activity against human K562 cells after 72 hrs by MTS assay. Format: functional. A general note: Tetrazolium assays rely on reduction of a dye to a coloured formazan, in cell work by metabolically active cells.
The subject of a further assay is BXPC-3. The experiment in a line: Antiproliferative activity against human BxPC3 cells after 72 hrs by MTS assay. In kind it is functional.
A further assay deals with U-87 MG. The experiment in a line: Antiproliferative activity against human U87 cells after 72 hrs by MTS assay. In kind it is functional, U-87MG ATCC.
Assay [1] has as its system HT-29. The experiment in a line: Antiproliferative activity against human HT-29 cells assessed as cell viability after 72 hrs by MTS assay relative to control. Format: functional.
The next assay relates to MCF7. The experiment in a line: Antiproliferative activity against human MCF7 cells after 72 hrs by MTS assay. Format: functional.
Assay [2] deals with HT-29. The experiment in a line: Antiproliferative activity against human HT-29 cells after 72 hrs by MTS assay. Format: functional.
A further assay relates to A549. The experiment in a line: Antiproliferative activity against human A549 cells after 72 hrs by MTS assay. Format: functional.
For a further assay, the system named is K-562R. The experiment in a line: Antiproliferative activity against human K562R cells after 72 hrs by MTS assay. In kind it is functional.
The subject of the next assay is HCT-116. The experiment in a line: Antiproliferative activity against human HCT116 cells after 72 hrs by MTS assay. In kind it is functional.
Another assay relates to MIA PaCa-2. The experiment in a line: Antiproliferative activity against human MIAPaCa2 cells after 72 hrs by MTS assay. Format: functional.
The subject of another assay is PC-3. The experiment in a line: Antiproliferative activity against human PC3 cells after 72 hrs by MTS assay. In kind it is functional.
For assay [3], the system named is HT-29. The experiment in a line: Antiproliferative activity against human HT-29 cells in presence of isoCA-4 after 72 hrs by MTS assay relative to control. The note with it: HT-29, 72 h. In kind it is functional, cell-based.

As to `CC(/C=C/C(=O)NO)=C\[C@@H](C)C(=O)c1ccc(N(C)C)cc1` [TRICHOSTATIN], the GI50 – broadly, the concentration at which growth is held to half of that of the control – in the assay with K562 came out at 262 nM; in the assay with BXPC-3 it was 100 nM; in the assay with U-87 MG it was 1040 nM; in the assay on MCF7 it was 45 nM; in the assay with HT-29 [2], 34.1 nM; in the assay with A549 it was 80 nM. The concentration for 50% growth inhibition (GI50) in the assay with K-562R came out at 88 nM; in the assay on HCT-116 it was 35 nM; in the assay with MIA PaCa-2, 200 nM; in the assay with PC-3 it was 387 nM. Also, the Activity with HT-29 [1] was less than 20%. The IC50 (in general, the midpoint of a concentration-inhibition curve) with HT-29 [3] is 3.8 nM.

(Values after ChEMBL document CHEMBL4325829, “Design and Synthesis of Tubulin and Histone Deacetylase Inhibitor Based on iso-Combretastatin A-4” (J Med Chem, 2018).)
